Key:
Type in all cases: biochemical
PDGFRβ kinase = biological target: T1, PDGFRβ kinase (Homo sapiens, UniProt P09619); experiment: In vitro PDGFRβ kinase assay
T1 construct: purchased Invitrogen Inc. P3082
Method: (§1) In Vitro VEGFR2 and PDGFRP Kinase Assays
(§2) 2.5 μl of ADP Quest assay buffer (DiscoverX Inc., cat. #90-0071) containing 20 ng VEGFR2 kinase (Invitrogen Inc, cat. #PV3660) or 25 ng PDGFRβ kinase (Invitrogen Inc., cat. #P3082) is dispensed to wells of a 1536 multi-well, black solid plate. 60 nl of 100× concentration of test compound in DMSO is dispensed to the well by passive pin transfer and incubated for 10 minutes at room temperature (approx. 22° C.). 2.5 μl of ADP Quest assay buffer containing 0.25 μg of poly Glu:Tyr (4:1) substrate peptide (Upstate Inc., cat. #12-440) and 60 μM ATP is then dispensed and the kinase reaction allowed to incubate at 30° C. for 2 hours. The assay plates are sealed and maintained in a humidified environment. After the 2 hour incubation, 2 μl of ADP Quest assay reagent A, followed by 2 μl of assay reagent B, is added. After an additional 30 minute incubation at room temperature, fluorescence intensity is measured on a Molecular Devices Aquest multi-mode plate reader or other suitable plate reader (fluorescence excitation filter: 530/25 [Peak(nm)/FWHM passband(nm)]; dichroic beamsplitter: 561 nm longpass; fluorescence emission filter: 580/10 [Peak(nm)/FWHM passband(nm)]. The assay measures the conversion of a non-fluoresecent molecule to fluorescent resorufin, which correlates with kinase activity. Negative control activity is measured with DMSO lacking any test compound. The positive control is [N-(3-trifluoromethyl-4-chlorophenyl)-N′-(4-(2-methylcarbamoyl-pyridin-4-yl)oxyphenyl)urea], aka Bay 43-9006. Efficacy is measured as a percentage of positive control activity.

[1] = biological target: T2, human B-Raf protein kinase (Homo sapiens, UniProt P15056); experiment: In vitro B-Raf/Mek1 composite kinase assay
T2 construct: GST (N); purchased Upstate Inc. 14-530 (B-Raf); 14-420 (Mek1)
T2 sequence (P15056 416-766): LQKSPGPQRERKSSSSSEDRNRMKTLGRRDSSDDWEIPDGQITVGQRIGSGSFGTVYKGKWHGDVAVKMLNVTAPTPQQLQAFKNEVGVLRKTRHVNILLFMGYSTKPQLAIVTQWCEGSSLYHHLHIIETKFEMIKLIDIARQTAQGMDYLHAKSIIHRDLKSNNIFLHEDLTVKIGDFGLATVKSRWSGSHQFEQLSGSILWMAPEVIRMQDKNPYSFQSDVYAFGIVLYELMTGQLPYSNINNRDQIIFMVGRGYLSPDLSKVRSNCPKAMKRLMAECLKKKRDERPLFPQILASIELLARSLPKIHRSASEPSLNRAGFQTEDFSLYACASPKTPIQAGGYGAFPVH
Method: In Vitro B-Raf/Mek1 Composite Kinase Assay
2.5 μl of B-Raf kinase buffer (20 mM MOPS [pH 7.2], 25 mM sodium glycerophosphate, 2 mM EGTA [pH 8.0], 1 mM sodium orthovanadate, 1 mM dithiothreitol, 10 mM MgCl2, 0.03% Brij-35, 0.3 mg/ml bovine serum albumin) containing lng of recombinant, N-terminal GST-tagged human B-Raf protein kinase (Δ1-415, Upstate Inc., cat. #14-530) is dispensed to wells of a 1536 multi-well white solid plate. 60 nl of 100× concentration of test compound in DMSO is dispensed to the well by passive pin transfer and incubated for 15 minutes at room temperature (approx. 22° C.). […] The assay plates are sealed and maintained in a humidified environment. After 2 hours, 2.5 μl of PKLight protein kinase assay reagent (Cambrex, cat. #LT07-501) is dispensed. After an additional 5 minute incubation at room temperature, luminescence activity is measured on a Molecular Devices Analyst multi-mode plate reader or other suitable plate reader. Kinase inhibition results in less ATP depletion, and therefore increased luminescence signal. Negative control activity is measured with DMSO lacking any test compound. The positive control is [N-(3-trifluoromethyl-4-chlorophenyl)-N′-(4-(2-methylcarbamoyl-pyridin-4-yl)oxyphenyl)urea], aka Bay 43-9006. Efficacy is measured as a percentage of positive control activity.

VEGFR2 kinase = biological target: T3, VEGFR2 kinase (Homo sapiens, UniProt P35968); experiment: In vitro VEGFR2 kinase assay
T3 construct: purchased Invitrogen Inc PV3660
T3 sequence (P35968 20-1356): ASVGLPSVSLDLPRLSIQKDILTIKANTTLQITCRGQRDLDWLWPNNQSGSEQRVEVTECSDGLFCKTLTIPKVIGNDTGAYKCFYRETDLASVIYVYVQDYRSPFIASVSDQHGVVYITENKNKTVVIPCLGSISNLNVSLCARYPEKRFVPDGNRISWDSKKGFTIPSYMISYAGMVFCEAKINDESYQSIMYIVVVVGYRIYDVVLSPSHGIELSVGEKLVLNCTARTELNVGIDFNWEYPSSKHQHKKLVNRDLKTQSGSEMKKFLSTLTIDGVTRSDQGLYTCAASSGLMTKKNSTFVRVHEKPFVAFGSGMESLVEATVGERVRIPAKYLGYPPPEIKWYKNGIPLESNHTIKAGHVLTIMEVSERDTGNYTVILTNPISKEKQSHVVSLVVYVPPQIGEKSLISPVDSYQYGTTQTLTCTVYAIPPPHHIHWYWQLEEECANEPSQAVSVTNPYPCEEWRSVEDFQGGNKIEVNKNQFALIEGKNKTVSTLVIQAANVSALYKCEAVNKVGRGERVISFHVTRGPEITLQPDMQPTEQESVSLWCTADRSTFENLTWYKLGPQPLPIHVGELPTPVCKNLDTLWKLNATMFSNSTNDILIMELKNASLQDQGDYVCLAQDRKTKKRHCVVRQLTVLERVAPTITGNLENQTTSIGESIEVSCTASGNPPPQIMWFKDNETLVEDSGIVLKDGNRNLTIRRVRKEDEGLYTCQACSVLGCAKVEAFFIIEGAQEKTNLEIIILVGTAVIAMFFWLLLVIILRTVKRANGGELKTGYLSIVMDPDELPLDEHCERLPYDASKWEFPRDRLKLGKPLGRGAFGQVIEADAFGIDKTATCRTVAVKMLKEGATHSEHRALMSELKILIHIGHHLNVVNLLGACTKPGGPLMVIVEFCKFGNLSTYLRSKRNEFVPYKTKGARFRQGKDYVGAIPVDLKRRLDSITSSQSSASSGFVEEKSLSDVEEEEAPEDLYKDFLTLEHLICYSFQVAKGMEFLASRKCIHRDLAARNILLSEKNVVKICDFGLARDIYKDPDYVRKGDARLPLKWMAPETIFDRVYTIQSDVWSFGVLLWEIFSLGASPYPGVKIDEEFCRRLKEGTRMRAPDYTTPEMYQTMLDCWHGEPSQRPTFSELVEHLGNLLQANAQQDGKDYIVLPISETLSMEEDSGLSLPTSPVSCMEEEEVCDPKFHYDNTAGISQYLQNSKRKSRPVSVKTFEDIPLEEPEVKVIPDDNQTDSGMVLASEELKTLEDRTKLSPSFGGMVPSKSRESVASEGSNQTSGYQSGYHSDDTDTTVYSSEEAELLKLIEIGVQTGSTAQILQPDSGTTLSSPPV
Method: as §1, §2

T1 sequence (P09619 33-1106): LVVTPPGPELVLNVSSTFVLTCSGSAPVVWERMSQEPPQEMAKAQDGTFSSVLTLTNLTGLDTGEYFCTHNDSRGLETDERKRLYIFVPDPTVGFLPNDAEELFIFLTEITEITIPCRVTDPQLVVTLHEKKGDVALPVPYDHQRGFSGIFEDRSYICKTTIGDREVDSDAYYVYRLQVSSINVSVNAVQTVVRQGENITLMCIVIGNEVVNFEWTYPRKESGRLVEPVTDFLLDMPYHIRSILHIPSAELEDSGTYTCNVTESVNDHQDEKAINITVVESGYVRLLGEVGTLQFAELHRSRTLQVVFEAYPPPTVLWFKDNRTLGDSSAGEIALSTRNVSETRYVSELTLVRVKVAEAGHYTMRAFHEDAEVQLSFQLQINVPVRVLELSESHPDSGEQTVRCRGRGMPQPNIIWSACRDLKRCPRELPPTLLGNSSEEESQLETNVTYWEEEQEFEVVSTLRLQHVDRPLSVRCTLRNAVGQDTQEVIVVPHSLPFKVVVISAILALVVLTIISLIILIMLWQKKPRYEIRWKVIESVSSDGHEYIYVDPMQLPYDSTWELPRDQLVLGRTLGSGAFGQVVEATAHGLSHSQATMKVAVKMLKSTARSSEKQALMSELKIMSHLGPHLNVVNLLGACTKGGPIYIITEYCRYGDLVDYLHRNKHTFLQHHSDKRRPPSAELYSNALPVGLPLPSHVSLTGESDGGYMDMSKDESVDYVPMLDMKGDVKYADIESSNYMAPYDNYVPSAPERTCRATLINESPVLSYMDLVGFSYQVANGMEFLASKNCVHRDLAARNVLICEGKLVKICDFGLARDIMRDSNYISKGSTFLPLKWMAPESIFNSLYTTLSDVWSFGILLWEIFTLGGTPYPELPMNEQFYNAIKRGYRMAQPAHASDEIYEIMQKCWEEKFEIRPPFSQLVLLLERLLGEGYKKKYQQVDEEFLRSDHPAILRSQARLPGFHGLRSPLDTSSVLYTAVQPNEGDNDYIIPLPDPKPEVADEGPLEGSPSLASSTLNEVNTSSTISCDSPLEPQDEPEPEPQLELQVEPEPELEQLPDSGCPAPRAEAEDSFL

| SMILES | IC50 (PDGFRβ kinase) [µM] | IC50 [1] [µM] | IC50 (VEGFR2 kinase) [µM] |
| --- | --- | --- | --- |
| Cn1cc(-c2cc(Oc3cccc(NC(=O)c4ccc(C(F)(F)F)cc4)c3)ccn2)cn1 [Example 45, N-(3-(2-(1-Methyl-1H-pyrazol-4-yl)pyridin-4-yloxy)phenyl)-4-(trifluoromethyl)benzamide] | > 10 | ≤ 10 | > 10 |
| Cn1cc(-c2cc(Oc3cccc(NC(=O)c4ccc(OC(F)(F)F)cc4OC(F)(F)F)c3)ccn2)cn1 [Example 42, N-(3-(2-(1-Methyl-1H-pyrazol-4-yl)pyridin-4-yloxy)phenyl)-2,4-bis(trifluoromethoxy)benzamide] | > 10 | ≤ 10 | ≤ 10 |
| CCOc1cc(C(=O)Nc2cccc(Oc3ccnc(C(=O)NC)c3)c2)cc(OCC)c1OCC [Example 13, N-Methyl-4-(3-(3,4,5-triethoxybenzamido)phenoxy)picolinamide] | ≤ 10 | > 10 | ≤ 10 |
| Cn1cc(-c2cc(Oc3cccc(NC(=O)c4cccc5c4OC(F)(F)O5)c3)ccn2)cn1 [Example 30, 2,2-Difluoro-N-(3-(2-(1-methyl-1H-pyrazol-4-yl)pyridin-4-yloxy)phenyl)benzo[d][1,3]dioxole-4-carboxamide] | > 10 | > 10 | > 10 |
| Cn1cc(-c2cc(Oc3cccc(NC(=O)c4ccccc4-n4ccnc4)c3)ccn2)cn1 [Example 36, 2-(1H-Imidazol-1-yl)-N-(3-(2-(1-methyl-1H-pyrazol-4-yl)pyridin-4-yloxy)phenyl) benzamide] | ≤ 10 | > 10 | ≤ 10 |
| Cn1cc(-c2cc(Oc3cccc(NC(=O)c4ccc5c(c4)OC(F)(F)O5)c3)ccn2)cn1 [Example 62, 2,2-Difluoro-N-(3-(2-(1-methyl-1H-pyrazol-4-yl)pyridin-4-yloxy)phenyl)benzo[d][1,3]dioxole-5-carboxamide] | > 10 | > 10 | > 10 |
| Cn1cc(-c2cc(Oc3cccc(NC(=O)c4ccc(Cl)c(C(F)(F)F)c4)c3)ccn2)cn1 [Example 21, 4-Chloro-N-(3-(2-(1-methyl-1H-pyrazol-4-yl)pyridin-4-yloxy)phenyl)-3-(trifluoromethyl)benzamide] | > 10 | > 10 | > 10 |
| CCCOc1ccc(C(=O)Nc2cccc(Oc3ccnc(-c4cnn(C)c4)c3)c2)cc1 [Example 74, N-(3-(2-(1-Methyl-1H-pyrazol-4-yl)pyridin-4-yloxy)phenyl)-4-propoxybenzamide] | > 10 | ≤ 10 | > 10 |
| O=C(Nc1cccc(Oc2ccnc(-c3nnco3)c2)c1)c1ccc2c(c1)OCCCO2 [Example 6, N-(3-(2-(1,3,4-Oxadiazol-2-yl)pyridin-4-yloxy)phenyl)-3,4-dihydro-2H-benzo[b][1,4]dioxepine-7-carboxamide] | > 10 | > 10 | ≤ 10 |
| CCOc1cc(OCC)cc(C(=O)Nc2ccc(Oc3ccnc(-c4cnn(C)c4)c3)cc2)c1 [Example 20, 3,5-Diethoxy-N-(4-(2-(1-methyl-1H-pyrazol-4-yl)pyridin-4-yloxy)phenyl)benzamide] | ≤ 10 | ≤ 10 | ≤ 10 |
| Cn1cc(-c2cc(Oc3cccc(NC(=O)c4ccccc4-n4cccc4)c3)ccn2)cn1 [Example 57, N-(3-(2-(1-Methyl-1H-pyrazol-4-yl)pyridin-4-yloxy)phenyl)-2-(1H-pyrrol-1-yl)benzamide] | ≤ 10 | ≤ 10 | ≤ 10 |
| Cn1cc(-c2cc(Oc3cccc(NC(=O)c4cc(OC(F)(F)F)cc(OC(F)(F)F)c4)c3)ccn2)cn1 [Example 41, N-(3-(2-(1-methyl-1H-pyrazol-4-yl)pyridin-4-yloxy)phenyl)-3,5-bis(trifluoromethoxy)benzamide] | > 10 | > 10 | > 10 |
| Cn1cc(-c2cc(Oc3ccc(F)c(NC(=O)c4ccc(Cl)c(C(F)(F)F)c4)c3)ncn2)cn1 [Example 26, 4-Chloro-N-(2-fluoro-5-(6-(1-methyl-1H-pyrazol-4-yl)pyrimidin-4-yloxy)phenyl)-3-(trifluoromethyl)benzamide] | > 10 | > 10 | > 10 |
| CC(C)Oc1ccc(C(=O)Nc2cccc(Oc3ccnc(-c4cnn(C)c4)c3)c2)cc1 [Example 75, 4-Isopropoxy-N-(3-(2-(1-methyl-1H-pyrazol-4-yl)pyridin-4-yloxy)phenyl)benzamide] | > 10 | ≤ 10 | > 10 |
| CNC(=O)c1cc(Oc2cccc(NC(=O)c3ccc(OC)c(OC4CCCC4)c3)c2)ccn1 [Example 15, 4-(3-(3-(Cyclopentyloxy)-4-methoxybenzamido)phenoxy)-N-methylpicolinamide] | ≤ 10 | > 10 | ≤ 10 |
| Cn1cc(-c2cc(Oc3cccc(NC(=O)c4ccc(C(=O)c5ccccc5)cc4)c3)ccn2)cn1 [Example 51, 4-Benzoyl-N-(3-(2-(1-methyl-1H-pyrazol-4-yl)pyridin-4-yloxy)phenyl)benzamide] | > 10 | ≤ 10 | ≤ 10 |
| Cn1cc(-c2cc(Oc3cccc(NC(=O)c4ccc5[nH]nnc5c4)c3)ccn2)cn1 [Example 65, N-(3-(2-(1-Methyl-1H-pyrazol-4-yl)pyridin-4-yloxy)phenyl)-1H-benzo[d][1,2,3]triazole-5-carboxamide] | > 10 | ≤ 10 | ≤ 10 |
| Cn1cc(-c2cc(Oc3cccc(NC(=O)c4ccc5c(c4)CCO5)c3)ccn2)cn1 [Example 67, N-(3-(2-(1-Methyl-1H-pyrazol-4-yl)pyridin-4-yloxy)phenyl)-2,3-dihydrobenzofuran-5-carboxamide] | > 10 | > 10 | > 10 |
| Cn1cc(-c2cc(Oc3cccc(NC(=O)c4ccc(-n5ccnc5)cc4)c3)ccn2)cn1 [Example 60, 4-(1H-Imidazol-1-yl)-N-(3-(2-(1-methyl-1H-pyrazol-4-yl)pyridin-4-yloxy)phenyl)benzamide] | > 10 | ≤ 10 | > 10 |
| Cn1cc(-c2cc(Oc3cccc(NC(=O)c4ccccc4C(F)(F)F)c3)ccn2)cn1 [Example 43, N-(3-(2-(1-Methyl-1H-pyrazol-4-yl)pyridin-4-yloxy)phenyl)-2-(trifluoromethyl)benzamide] | ≤ 10 | ≤ 10 | ≤ 10 |
| Cn1cc(-c2cc(Oc3cccc(NC(=O)c4ccc5c(c4)C(=O)OC5=O)c3)ccn2)cn1 [Example 63, N-(3-(2-(1-Methyl-1H-pyrazol-4-yl)pyridin-4-yloxy)phenyl)-1,3-dioxo-1,3-dihydroisobenzofuran-5-carboxamide] | ≤ 10 | ≤ 10 | > 10 |
| O=C(Nc1cccc(Oc2ccnc(-c3nnco3)c2)c1)c1ccc(Oc2ccccc2)cc1 [Example 5, N-(3-(2-(1,3,4-Oxadiazol-2-yl)pyridin-4-yloxy)phenyl)-4-phenoxybenzamide] | > 10 | > 10 | ≤ 10 |
| Cn1cc(-c2nccc(Oc3cccc(NC(=O)c4ccc(OC(F)(F)F)cc4)c3)n2)cn1 [Example 27, N-{3-[2-(1-Methyl-1H-pyrazol-4-yl)-pyrimidin-4-yloxy]-phenyl}-4-trifluoromethoxy-benzamide] | > 10 | > 10 | > 10 |
| Cn1cc(-c2cc(Oc3cccc(NC(=O)c4cccc(Oc5ccccc5)c4)c3)ccn2)cn1 [Example 55, N-(3-(2-(1-Methyl-1H-pyrazol-4-yl)pyridin-4-yloxy)phenyl)-3-phenoxybenzamide] | > 10 | > 10 | ≤ 10 |
| Cn1cc(-c2cc(Oc3cccc(NC(=O)c4cccc(-c5ccccc5)c4)c3)ccn2)cn1 [Example 31, N-(3-(2-(1-Methyl-1H-pyrazol-4-yl)pyridin-4-yloxy)phenyl)biphenyl-3-carboxamide] | > 10 | > 10 | > 10 |
